Results from ChEMBL document CHEMBL1201861, “Genomics of Drug Sensitity in Cancer screening data, Wellcome Trust Sanger Institute”.
“And” between values parts separate entries of the source, which are not always exact repeats. Equal entries are not always repeated. Where a SMILES comes first, the peptide text is derived from it. The star is where a group is joined. Cbz = O=C(OCc1ccccc1)*

How the values were obtained:
Assay in all cases: cells
LC4-1 = format: functional, cell-based, Homo sapiens;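 note: growth inhibition of LC4-1 cells, read out with a cell viability assay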
Description: SANGER: Inhibition of human LC4-1 cell growth in a cell viability assay.

KMOE-2 = format: functional, cell-based, Homo sapiens;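 note: growth inhibition of human KMOE-2 cells, read out with a cell viability assay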
Description: SANGER: Inhibition of human KMOE-2 cell growth in a cell viability assay.

K052 = format: functional, cell-based, Homo sapiens;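 note: Read-out from a cell viability assay, IC50 reflecting suppression of K052 cell growth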
Description: SANGER: Inhibition of human K052 cell growth in a cell viability assay.

NCI-H510A = format: functional, cell-based, Homo sapiens;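 note: growth inhibition of NCI-H510A cells, read out with a cell viability assay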
Description: SANGER: Inhibition of human NCI-H510A cell growth in a cell viability assay.

SR = format: functional, cell-based, Homo sapiens
Description: SANGER: Inhibition of human SR cell growth in a cell viability assay.

HC-1 = format: functional, cell-based, Homo sapiens;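 note: growth inhibition of HC-1 cells measured by a cell viability assay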
Description: SANGER: Inhibition of human HC-1 cell growth in a cell viability assay.

KMS-12-PE = format: functional, cell-based, Homo sapiens;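 note: growth inhibition of human KMS-12-PE cells, measured with a cell viability assay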
Description: SANGER: Inhibition of human KMS-12-PE cell growth in a cell viability assay.

THP-1 = format: functional, cell-based, Homo sapiens;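 note: growth inhibition of THP-1 cells, read out via a cell viability assay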
Description: SANGER: Inhibition of human THP-1 cell growth in a cell viability assay.

NB7 = format: functional, cell-based, Homo sapiens;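 note: growth inhibition of NB7 cells, read out with a cell viability assay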
Description: SANGER: Inhibition of human NB7 cell growth in a cell viability assay.

MDA-MB-134-VI = format: functional, cell-based, Homo sapiens
Description: SANGER: Inhibition of human MDA-MB-134-VI cell growth in a cell viability assay.

EHEB = format: functional, cell-based; conditions: Homo sapiens;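 note: growth inhibition of human EHEB cells, read out with a cell viability assay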
Description: SANGER: Inhibition of human EHEB cell growth in a cell viability assay.

NCI-H716 = format: functional, cell-based, Homo sapiens;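 note: growth inhibition of human NCI-H716 cells, measured by a cell viability assay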
Description: SANGER: Inhibition of human NCI-H716 cell growth in a cell viability assay.

NCI-H1436 = format: functional, cell-based, Homo sapiens;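 note: growth suppression of human NCI-H1436 cells, determined with a cell viability readout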
Description: SANGER: Inhibition of human NCI-H1436 cell growth in a cell viability assay.

P31-FUJ = format: functional, cell-based, Homo sapiens;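 note: growth inhibition of P31-FUJ cells, read out with a viability assay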
Description: SANGER: Inhibition of human P31-FUJ cell growth in a cell viability assay.

Row | Structure (SMILES) | IC50 (LC4-1; Homo sapiens, LC4-1) [nM] | IC50 (KMOE-2; Homo sapiens, KMOE-2) [nM] | IC50 (K052; Homo sapiens, K052) [nM] | IC50 (NCI-H510A; Homo sapiens, NCI-H510A) [nM] | IC50 (SR; Homo sapiens, SR) [nM] | IC50 (HC-1; Homo sapiens, HC-1) [nM] | IC50 (KMS-12-PE; Homo sapiens, KMS-12-PE) [nM] | IC50 (THP-1; Homo sapiens, THP-1) [nM] | IC50 (NB7; Homo sapiens, NB7) [nM] | IC50 (MDA-MB-134-VI; Homo sapiens, MDA-MB-134-VI) [nM] | IC50 (EHEB) [nM] | IC50 (NCI-H716; Homo sapiens, NCI-H716) [nM] | IC50 (NCI-H1436; Homo sapiens, NCI-H1436) [nM] | IC50 (P31-FUJ; Homo sapiens, P31-FUJ) [nM] | other results
1 | NC(=O)c1cccc(-c2cc(Nc3ccc(OC(F)(F)F)cc3)ncn2)c1 | > 1280 | > 1280 | > 1280 | > 1280 | > 1280 | > 1280 | > 1280 | > 1280 | > 1280 | > 1280 | > 1280 | > 1280 | > 1280 | > 1280 | 
2 | C[C@@H](Oc1cc(-c2cnn(C3CCNCC3)c2)cnc1N)c1c(Cl)ccc(F)c1Cl [CRIZOTINIB] | > 2000 | > 2000 | > 2000 | > 2000 | 126 | > 2000 | > 2000 | > 2000 | > 2000 | > 2000 | > 2000 | > 2000 | > 2000 | > 2000 | 
3 | Cc1ccc(NC(=O)c2ccc(CN3CCN(C)CC3)cc2)cc1Nc1nccc(-c2cccnc2)n1 [IMATINIB] | > 2000 | > 2000 | > 2000 | > 2000 | > 2000 | > 2000 | > 2000 | > 2000 | > 2000 | > 2000 | > 2000 | > 2000 | 978 | > 2000 | 
4 | CC(C)C[C@@H](C=O)NC(=O)[C@H](CC(C)C)NC(=O)[C@H](CC(C)C)NC(=O)OCc1ccccc1 [MG-132] (Cbz-Leu-Leu-Leu-aldehyde) | 436 | > 1000 |  | > 1000 |  |  |  |  |  |  | > 1000 |  | > 1000 |  | IC50 (LC4-1; lc4-1): 747 nM; IC50 (KMOE-2; kmoe-2): > 1000 nM; IC50 (K052; k052): 290 nM and > 1000 nM; IC50 (NCI-H510A; nci-h510a): > 1000 nM; IC50 (SR; sr): > 1000 nM; IC50 (HC-1; hc-1): > 1000 nM; IC50 (KMS-12-PE; kms-12-pe): > 1000 nM; IC50 (THP-1; thp-1): > 1000 nM; IC50 (NB7; nb7): > 1000 nM; IC50 (MDA-MB-134-VI; mda-mb-134-vi): > 1000 nM; IC50 (NCI-H716; nci-h716): > 1000 nM; IC50 (NCI-H1436; nci-h1436): > 1000 nM; IC50 (P31-FUJ; p31-fuj): > 1000 nM
5 | COc1cc(N2CCC(N3CCN(C)CC3)CC2)ccc1Nc1ncc(Cl)c(Nc2ccccc2S(=O)(=O)C(C)C)n1 [TAE-684] | > 2000 | > 2000 | > 2000 | > 2000 | 2.77 | > 2000 | > 2000 | > 2000 | > 2000 | > 2000 | > 2000 | 1070 | > 2000 | > 2000 | 
